Laboratory results taken from US20100113421A1, “NON-NUCLEOSIDE REVERSE TRANSCRIPTASE INHIBITORS” (priority 2006, published 2010).
Where two headings read alike, the source gives them in different places.

Experiments:
[1] = tested on: HIV strain containing the Y181C mutation; test: Spread assay, Y181C mutant strain; format: cell-based; details: spread assay, Y181C mutant strain, read-out: CIC95
Method: (§1) Assays for the inhibition of acute HIV-1 infection of T-lymphoid cells (alternatively referred to herein as the “spread assay”) were conducted in accordance with Vacca, J. P. et al., Proc. Natl. Acad. Sci. USA 1994, 91: 4096. The assays (using 10% FBS) tested for inhibition of wild type HIV-1 and of HIV strains containing the Y181C or K103N mutation. […] (Note that the compound of Example 6 was tested only up to a 833 nM concentration and the CIC95 value was determined to be >833 nM. The compound of Example 78 was not tested in the Y1818C assay.) The compounds of Examples 1 to 119 (including Examples 70A and 70B) had CIC95 values of less than 1000 nanomolar in the assay employing the K103N mutant strain. In an analogous assay employing a mutant strain containing both the K103N and Y181C mutations, the compounds of Examples 70A, 70B and 78-115 had CIC95 values of less than 1000 nanomolar.

[2] = tested on: mutant strain containing both the K103N and Y181C mutations; test: Spread assay, mutant strain containing both K103N and Y181C; format: cell-based, HIV; details: Human immunodeficiency virus 1; analogous spread assay, K103N and Y181C double mutant strain; read-out: CIC95
Method: as §1

[3] = Human immunodeficiency virus 1, 10% FBS

| SMILES | IC95 [1, 3] | IC95 [2] | IC95 ([1]; tested only up to a 833 nM concentration) |
| --- | --- | --- | --- |
| CC(C)c1c(C(=O)N(C)Cc2ccnc(N)c2)[nH]c(C(N)=O)c1S(=O)(=O)c1ccccc1 [Example 101] | < 8 µM | < 1 µM | – |
| CC(C)c1c(C(=O)N(C)Cc2ccnc(Cl)c2F)[nH]c(C(N)=O)c1S(=O)(=O)c1ccccc1 [Example 108, N2-[(2-chloro-3-fluoropyridin-4-yl)methyl]-3-isopropyl-N2-methyl-4-(phenylsulfonyl)-1H-pyrrole-2,5-dicarboxamide] | < 8 µM | < 1 µM | – |
| Cc1c(C(=O)N2CCCc3sc(Cl)cc3C2)[nH]c(C(N)=O)c1S(=O)(=O)c1cc(Cl)cc(Cl)c1 [Example 96, 3-[(3,5-Dichlorophenyl)sulfonyl]-4-methyl-5-[(2-chloro-4,6,7,8-tetrahydro-5H-thieno[3,2-c]azepin-5-yl)carbonyl]-1H-pyrrole-2-carboxamide] | < 8 µM | < 1 µM | – |
| Cc1cc(C)cc(S(=O)(=O)c2c(C(N)=O)[nH]c(C(=O)N(C)Cc3ccnc(Cl)c3F)c2C)c1 [Example 107, N5-[(2-chloro-3-fluoropyridin-4-yl)methyl]-3-[(3,5-dimethylphenyl)sulfonyl]-N5,4-dimethyl-1H-pyrrole-2,5-dicarboxamide] | < 8 µM | < 1 µM | – |
| CC(C)c1c(C(=O)N(C)Cc2ccnc(N)c2F)[nH]c(C(N)=O)c1S(=O)(=O)c1ccccc1 [Example 115, N2-[(2-amino-3-fluoropyridin-4-yl)methyl]-3-isopropyl-N2-methyl-4-(phenylsulfonyl)-1H-pyrrole-2,5-dicarboxamide] | < 8 µM | < 1 µM | – |
| Cc1cc(C)cc(S(=O)(=O)c2c(C(N)=O)[nH]c(C(=O)N3CCCc4ccc(O)cc4C3)c2C)c1 [Example 90, 3-[(3,5-dimethylphenyl)sulfonyl]-4-methyl-5-(8-hydroxy-1,3,4,5-tetrahydro-2H-2-benzazepin-2-ylcarbonyl)-1H-pyrrole-2-carboxamide] | < 8 µM | < 1 µM | – |
| COc1ccc2c(c1)CN(C(=O)c1[nH]c(C(N)=O)c(S(=O)(=O)c3cc(C)cc(C)c3)c1C)CCC2 [Example 89, 3-[(3,5-dimethylphenyl)sulfonyl]-4-methyl-5-(8-methoxy-1,3,4,5-tetrahydro-2H-2-benzazepin-2-ylcarbonyl)-1H-pyrrole-2-carboxamide] | < 8 µM | < 1 µM | – |
| COc1ccc2c(c1)CCCN(C(=O)c1[nH]c(C(N)=O)c(S(=O)(=O)c3cc(C)cc(C)c3)c1C)C2 [Example 87, 3-[(3,5-dimethylphenyl)sulfonyl]-4-methyl-5-(7-methoxy-1,3,4,5-tetrahydro-2H-2-benzazepin-2-ylcarbonyl)-1H-pyrrole-2-carboxamide] | < 8 µM | < 1 µM | – |
| CC(C)c1c(C(=O)N(C)Cc2ccncc2Cl)[nH]c(C(N)=O)c1S(=O)(=O)c1ccccc1 [Example 106, N2-[(3-chloropyridin-4-yl)methyl]-3-isopropyl-N2-methyl-4-(phenylsulfonyl)-1H-pyrrole-2,5-dicarboxamide] | < 8 µM | < 1 µM | – |
| COc1ccc2c(c1)CN(C(=O)c1[nH]c(C(N)=O)c(S(=O)(=O)c3cccc(C(F)(F)F)c3)c1C)CCC2 [Example 95, 3-[(3-(1,1,1-trifluoromethyl)phenyl)sulfonyl]-4-methyl-5-(8-methoxy-1,3,4,5-tetrahydro-2H-2-benzazepin-2-ylcarbonyl)-1H-pyrrole-2-carboxamide] | < 8 µM | < 1 µM | – |
| Cc1c(C(=O)N(C)Cc2ccc(Cl)cc2Cl)[nH]c(C(N)=O)c1S(=O)(=O)N1CCCC1 [Example 116, N-(2,4-dichlorobenzyl)-N,3-dimethyl-4-(1-pyrrolidinylsulfonyl)-1H-pyrrole-2,5-dicarboxamide] | < 8 µM | – | – |
| Cc1cc(C)cc(S(=O)(=O)c2c(C(N)=O)[nH]c(C(=O)N(C)Cc3ccc(Cl)cc3Cl)c2C)c1 [Example 27, N-(2,4-dichlorobenzyl)-N,3-dimethyl-4-(3,5-dimethylphenylsulfonyl)-1H-pyrrole-2,5-dicarboxamide] | < 8 µM | – | – |
| Cc1c(C(=O)N(C)Cc2ccccc2Cl)[nH]c(C(N)=O)c1S(=O)(=O)c1ccc2ccccc2c1 [Example 6, N-(2-Chlorobenzyl)-N,3-dimethyl-4-(2-naphthylsulfonyl)-1H-pyrrole-2,5-dicarboxamide] | – | – | > 0.833 µM |
| Cc1c(C(=O)N(C)Cc2ccccc2F)[nH]c(C(N)=O)c1S(=O)(=O)c1cc(F)cc(Cl)c1 [Example 29, N-(2-fluorobenzyl)-N,3-dimethyl-4-(3-chloro-5-fluorophenylsulfonyl)-1H-pyrrole-2,5-dicarboxamide] | < 8 µM | – | – |
| COc1cccc(CN(C)C(=O)c2[nH]c(C(N)=O)c(S(=O)(=O)c3ccccc3)c2C)c1 [Example 36, N-(3-methoxyobenzyl)-N,3-dimethyl-4-(phenylsulfonyl)-1H-pyrrole-2,5-dicarboxamide] | < 8 µM | – | – |
| CCCCc1c(C(=O)N(C)Cc2ccc3ncccc3c2)[nH]c(C(N)=O)c1S(=O)(=O)c1cccc(Cl)c1 [Example 68, 3-butyl-4-[(3-chlorophenyl)sulfonyl]-N-methyl-N-(6-quinolinylmethyl)-1H-pyrrole-2,5-dicarboxamide] | < 8 µM | – | – |
| Cc1c(C(=O)N(C)Cc2ccc3ncccc3c2Cl)[nH]c(C(N)=O)c1S(=O)(=O)c1cc(Cl)cc(Cl)c1 [Example 55, N-[(5-chloro-6-quinolinyl)methyl]-4-[(3,5-dichlorophenyl)sulfonyl]-N,3-dimethyl-1H-pyrrole-2,5-dicarboxamide] | < 8 µM | – | – |
| Cc1c(C(=O)N(C)Cc2ccccc2Cl)[nH]c(C(N)=O)c1S(=O)(=O)N1CCCCC1 [Example 119, N-(2-chlorobenzyl)-N,3-dimethyl-4-(1-piperidinylsulfonyl)-1H-pyrrole-2,5-dicarboxamide] | < 8 µM | – | – |
| Cc1c(C(=O)N(C)Cc2ccc(Cl)cc2F)[nH]c(C(N)=O)c1S(=O)(=O)c1ccccc1 [Example 12, N-(4-chloro-2-fluorobenzyl)-N,3-dimethyl-4-(phenylsulfonyl)-1H-pyrrole-2,5-dicarboxamide] | < 8 µM | – | – |
| Cc1c(C(=O)N(C)Cc2ccc(Cl)cc2Cl)[nH]c(C(N)=O)c1S(=O)(=O)c1cccc(F)c1 [Example 19, N-(2,4-dichlorobenzyl)-N,3-dimethyl-4-(3-fluorophenylsulfonyl)-1H-pyrrole-2,5-dicarboxamide] | < 8 µM | – | – |
| Cc1cc(C)cc(S(=O)(=O)c2c(C(N)=O)[nH]c(C(=O)N(C)Cc3ccccc3F)c2C)c1 [Example 24, N-(2-fluorobenzyl)-N,3-dimethyl-4-(3,5-dimethylphenylsulfonyl)-1H-pyrrole-2,5-dicarboxamide] | < 8 µM | – | – |
| Cc1c(C(=O)N(C)Cc2ccc(Cl)cc2F)[nH]c(C(N)=O)c1S(=O)(=O)c1cc(Cl)cc(Cl)c1 [Example 35, N-(4-chloro-2-fluorobenzyl)-N,3-dimethyl-4-(3,5-dichlorophenylsulfonyl)-1H-pyrrole-2,5-dicarboxamide] | < 8 µM | – | – |
| Cc1cc(C)cc(S(=O)(=O)c2c(C(N)=O)[nH]c(C(=O)N(C)Cc3ccc4ncccc4c3)c2C)c1 [Example 40, 4-[(3,5-Dimethylphenyl)sulfonyl]-N,3-dimethyl-N-(6-quinolinylmethyl)-1H-pyrrole-2,5-dicarboxamide] | < 8 µM | – | – |
| Cc1c(C(=O)N2CCCc3ccccc3C2)[nH]c(C(N)=O)c1S(=O)(=O)c1ccccc1 [Example 78, 4-Methyl-3-(phenylsulfonyl)-5-(1,3,4,5-tetrahydro-2H-2-benzazepine-2-ylcarbonyl)-1H-pyrrole-2-carboxamide] | – | < 1 µM | – |
| Cc1c(C(=O)N(C)Cc2cc3cccnc3cc2Cl)[nH]c(C(N)=O)c1S(=O)(=O)c1cc(Cl)cc(Cl)c1 [Example 56, N-[(7-chloro-6-quinolinyl)methyl]-4-[(3,5-dichlorophenyl)sulfonyl]-N,3-dimethyl-1H-pyrrole-2,5-dicarboxamide] | < 8 µM | – | – |
| Cc1c(C(=O)N(C)Cc2ccc(Cl)cc2Cl)[nH]c(C(=O)NCc2nccs2)c1S(=O)(=O)c1ccccc1 [Example 76, N-(2,4-dichlorobenzyl)-N,3-dimethyl-4-(phenylsulfonyl)-N′-(1,3-thiazol-2-ylmethyl)-1H-pyrrole-2,5-dicarboxamide] | < 8 µM | – | – |
| CCCCc1c(C(=O)N(C)Cc2ccc3ncccc3c2)[nH]c(C(N)=O)c1S(=O)(=O)c1cc(C)cc(C)c1 [Example 69, 3-butyl-4-[(3,5-dimethylphenyl)sulfonyl]-N-methyl-N-(6-quinolinylmethyl)-1H-pyrrole-2,5-dicarboxamide] | < 8 µM | – | – |
| Cc1c(C(=O)N(C)Cc2ccccc2Cl)[nH]c(C(N)=O)c1S(=O)(=O)c1ccccc1 [Example 8, N-(2-chlorobenzyl)-N,3-dimethyl-4-(phenylsulfonyl)-1H-pyrrole-2,5-dicarboxamide] | < 8 µM | – | – |
| Cc1cc(C)cc(S(=O)(=O)c2c(C(N)=O)[nH]c(C(=O)N(C)Cc3ccc4ncccc4c3Cl)c2C)c1 [Example 47, N-[(5-chloro-6-quinolinyl)methyl]-4-[(3,5-dimethylphenyl)sulfonyl]-N,3-dimethyl-1H-pyrrole-2,5-dicarboxamide] | < 8 µM | – | – |
| Cc1c(C(=O)N(C)Cc2ccc3ncccc3c2Cl)[nH]c(C(N)=O)c1S(=O)(=O)c1ccccc1 [Example 42, N-[(5-Chloro-6-quinolinyl)methyl]-N,3-dimethyl-4-(phenylsulfonyl)-1H-pyrrole-2,5-dicarboxamide] | < 8 µM | – | – |
